Reference: US8741602B2, “Method for producing glucuronic acid conjugate using Saccharomyces cerevisiae” (Toyama Prefecture, priority 2010, dated 2014)
Blank lines part the entries; values can stand above or below the compound they belong to.

Key:
hUGT1A9 = biological target: T1, hUGT1A9 (Homo sapiens, UniProt O60656); test: Glucuronide production in resting S. cerevisiae AH22 cells co-expressing UDPGDH and UGT1A9; type: cell-based
T1 construct: expressed in transfected cells; host or cells: Saccharomyces cerevisiae AH22
T1 sequence (O60656 26-530): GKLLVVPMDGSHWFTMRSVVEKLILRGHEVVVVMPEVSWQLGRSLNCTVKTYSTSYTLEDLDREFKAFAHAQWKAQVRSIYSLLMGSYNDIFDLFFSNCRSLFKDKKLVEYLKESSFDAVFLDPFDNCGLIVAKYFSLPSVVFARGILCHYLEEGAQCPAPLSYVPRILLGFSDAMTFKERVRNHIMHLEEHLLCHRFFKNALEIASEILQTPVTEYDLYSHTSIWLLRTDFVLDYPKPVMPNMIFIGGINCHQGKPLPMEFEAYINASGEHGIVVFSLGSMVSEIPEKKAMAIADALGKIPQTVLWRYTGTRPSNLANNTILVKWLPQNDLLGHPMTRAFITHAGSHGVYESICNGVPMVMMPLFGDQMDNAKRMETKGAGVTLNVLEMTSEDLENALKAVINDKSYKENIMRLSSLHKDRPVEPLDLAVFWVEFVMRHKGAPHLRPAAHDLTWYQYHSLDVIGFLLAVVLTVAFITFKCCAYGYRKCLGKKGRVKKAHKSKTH
Protocol: (§1) Each phase was analyzed by UPLC system.

UGT1A10 = biological target: T2, UGT1A10 (Homo sapiens, UniProt Q9HAW8); test: Acyl glucuronide production in resting S. cerevisiae cells co-expressing UDPGDH and UGT1A10; type: cell-based; details: 1 mM mefenamic acid
T2 construct: expressed in transfected cells; host or cells: Saccharomyces cerevisiae AH22
T2 sequence (Q9HAW8 26-530): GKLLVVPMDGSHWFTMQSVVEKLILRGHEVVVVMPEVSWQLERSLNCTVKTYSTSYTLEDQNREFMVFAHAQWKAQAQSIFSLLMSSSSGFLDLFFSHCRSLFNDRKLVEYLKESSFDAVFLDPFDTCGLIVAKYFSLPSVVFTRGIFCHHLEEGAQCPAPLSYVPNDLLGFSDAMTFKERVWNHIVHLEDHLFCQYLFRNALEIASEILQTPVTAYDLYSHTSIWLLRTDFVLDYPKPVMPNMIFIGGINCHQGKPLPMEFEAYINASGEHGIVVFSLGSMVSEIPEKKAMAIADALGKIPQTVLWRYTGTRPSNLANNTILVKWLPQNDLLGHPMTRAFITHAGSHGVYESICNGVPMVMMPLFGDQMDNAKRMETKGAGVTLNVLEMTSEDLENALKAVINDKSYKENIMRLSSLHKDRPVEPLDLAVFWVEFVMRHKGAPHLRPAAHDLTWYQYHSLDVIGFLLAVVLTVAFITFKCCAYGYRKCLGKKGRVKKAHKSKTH
Protocol: as §1

hUGT1A8 = biological target: T3, hUGT1A8 (Homo sapiens, UniProt Q9HAW9); test: Glucuronide production in resting S. cerevisiae AH22 cells co-expressing UDPGDH and UGT1A8; type: cell-based
T3 construct: expressed in transfected cells; host or cells: Saccharomyces cerevisiae AH22
T3 sequence (Q9HAW9 26-530): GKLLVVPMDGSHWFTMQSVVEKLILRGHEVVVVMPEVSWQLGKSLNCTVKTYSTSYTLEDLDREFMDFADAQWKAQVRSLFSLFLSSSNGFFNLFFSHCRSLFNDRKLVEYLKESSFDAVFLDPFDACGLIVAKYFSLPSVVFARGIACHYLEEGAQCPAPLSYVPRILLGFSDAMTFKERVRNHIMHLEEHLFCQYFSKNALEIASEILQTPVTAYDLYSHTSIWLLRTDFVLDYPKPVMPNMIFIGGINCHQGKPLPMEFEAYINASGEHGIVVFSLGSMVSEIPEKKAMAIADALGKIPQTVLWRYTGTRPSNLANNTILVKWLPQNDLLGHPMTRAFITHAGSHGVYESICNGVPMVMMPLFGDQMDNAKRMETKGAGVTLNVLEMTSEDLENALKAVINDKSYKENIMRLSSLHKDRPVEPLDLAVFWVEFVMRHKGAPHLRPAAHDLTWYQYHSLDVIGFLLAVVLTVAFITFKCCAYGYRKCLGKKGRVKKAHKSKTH
Protocol: as §1

UGT1A6 = biological target: T4, UGT1A6 (Homo sapiens, UniProt P19224); test: Glucuronide production in resting S. cerevisiae AH22 cells co-expressing UDPGDH and UGT1A6; type: cell-based; parameters: expressed in transfected cells; host or cells: Saccharomyces cerevisiae AH22
T4 sequence (P19224 27-532): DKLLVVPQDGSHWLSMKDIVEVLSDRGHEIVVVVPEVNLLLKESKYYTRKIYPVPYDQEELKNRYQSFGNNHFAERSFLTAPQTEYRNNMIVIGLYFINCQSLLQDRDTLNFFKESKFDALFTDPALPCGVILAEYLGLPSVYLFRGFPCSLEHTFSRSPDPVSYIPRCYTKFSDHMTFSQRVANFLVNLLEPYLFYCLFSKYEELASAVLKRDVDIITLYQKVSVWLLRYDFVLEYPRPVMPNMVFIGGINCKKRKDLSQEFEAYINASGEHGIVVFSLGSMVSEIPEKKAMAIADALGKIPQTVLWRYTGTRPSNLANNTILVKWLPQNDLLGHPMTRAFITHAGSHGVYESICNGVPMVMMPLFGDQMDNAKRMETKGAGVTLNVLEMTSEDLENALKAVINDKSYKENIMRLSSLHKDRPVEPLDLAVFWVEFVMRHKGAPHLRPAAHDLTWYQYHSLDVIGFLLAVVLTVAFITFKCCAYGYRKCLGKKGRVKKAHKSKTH
Protocol: as §1
Time course of conversion in the transformant with the highest activity of glucuronidation (AH22: pAUR/At.UDPGDH+pGYR/hUGT1A6) was examined (FIG. 6).
Glucose concentration dependence of conversion in the transformant with the highest activity of glucuronidation (AH22: pAUR/At.UDPGDH+pGYR/hUGT1A6) was examined (FIG. 7).

hUGT1A7 = biological target: T5, hUGT1A7 (Homo sapiens, UniProt Q9HAW7); test: Glucuronide production in resting S. cerevisiae AH22 cells co-expressing UDPGDH and UGT1A7; type: cell-based; details: UGT1A7 with At.UDPGDH; 7-hydroxycoumarine substrate, 30° C., 24 hrs
T5 construct: expressed in transfected cells; host or cells: Saccharomyces cerevisiae AH22
T5 sequence (Q9HAW7 26-530): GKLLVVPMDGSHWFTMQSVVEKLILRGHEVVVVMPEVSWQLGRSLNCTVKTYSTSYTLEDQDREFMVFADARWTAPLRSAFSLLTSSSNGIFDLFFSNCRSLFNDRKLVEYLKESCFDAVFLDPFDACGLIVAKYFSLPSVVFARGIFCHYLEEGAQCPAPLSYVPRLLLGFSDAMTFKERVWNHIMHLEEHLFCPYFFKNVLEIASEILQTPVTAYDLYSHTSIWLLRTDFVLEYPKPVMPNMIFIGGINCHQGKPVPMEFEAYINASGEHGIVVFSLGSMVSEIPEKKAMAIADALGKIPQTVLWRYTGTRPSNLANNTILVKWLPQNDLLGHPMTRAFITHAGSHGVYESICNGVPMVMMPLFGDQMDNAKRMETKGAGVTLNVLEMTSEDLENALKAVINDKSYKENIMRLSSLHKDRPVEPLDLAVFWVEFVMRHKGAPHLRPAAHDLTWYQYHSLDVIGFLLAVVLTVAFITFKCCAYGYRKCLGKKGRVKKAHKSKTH
Protocol: as §1

hUGT1A1 [1] = biological target: T6, hUGT1A1 (Homo sapiens, UniProt P22309); test: Glucuronide production in resting S. cerevisiae AH22 cells co-expressing UDPGDH and UGT1A1; details: UGT1A1 with At.UDPGDH; 7-hydroxycoumarine substrate, 30° C., 24 hrs
T6 sequence (P22309 28-533): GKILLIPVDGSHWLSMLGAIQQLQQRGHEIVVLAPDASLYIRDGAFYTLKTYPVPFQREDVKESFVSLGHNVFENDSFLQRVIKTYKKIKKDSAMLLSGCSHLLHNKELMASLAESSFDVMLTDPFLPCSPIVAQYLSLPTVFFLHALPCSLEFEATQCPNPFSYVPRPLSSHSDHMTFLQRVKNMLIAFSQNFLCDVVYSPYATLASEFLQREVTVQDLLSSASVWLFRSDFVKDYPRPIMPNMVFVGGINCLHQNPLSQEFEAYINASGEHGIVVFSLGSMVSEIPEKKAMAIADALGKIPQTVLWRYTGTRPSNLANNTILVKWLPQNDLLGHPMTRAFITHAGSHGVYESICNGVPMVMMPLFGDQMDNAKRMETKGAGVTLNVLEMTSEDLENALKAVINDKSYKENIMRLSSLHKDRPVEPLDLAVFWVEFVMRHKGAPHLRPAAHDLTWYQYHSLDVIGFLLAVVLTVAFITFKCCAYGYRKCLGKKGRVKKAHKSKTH
Protocol: (§2) To confirm the production of 7-hydroxycoumarine glucuronide in the resting yeast cells containing UDPGDH and UGT, transformants were cultivated in selection medium at 30° C., 48 hrs, and the resultant yeast cells were suspended with appropriate buffer solution containing 0.1-1 mM 7-hydroxycoumarine and 1-8% (w/v) glucose. After incubation at 30° C., 24 hrs, 2-fold volume of chloroform:methanol (3:1, v/v) was added to reaction medium containing yeast cells. Centrifugation of extracts was separated to upper water and lower organic phase. Lower organic phase were evaporated and redissolved in 200 μl acetonitrile. Each phase was analyzed by UPLC system. Condition of analysis are described below; column: Cosmosil 2.5C18-MS-II (2.0 mm×100 mm, nacalai tesque), flow rate 0.5 ml/min, detection 320 nm, temperature 45° C. Condition of gradient elution: water-acetonitrile with 0.5% (v/v) trifluoroacetic acid, 10% (v/v) acetonitrile (4 min), 10-70% acetonitrile (6 min), 70-10% acetonitrile (2 min), 10% acetonitrile (4 min).
(§3) To confirm the production of quercetin glucuronide in the resting yeast cells containing UDPGDH and UGT (pAUR/At.UDPGDH+pGYR/hUGT1A1), transformants were cultivated in selection medium at 30° C., 48 hrs, and the resultant yeast cells were suspended with 0.1 M potassium phosphate buffer (pH 7.4) containing 0.2 mM quercetin and 8% (w/v) glucose. After incubation at 30° C., 24 hrs, 2-fold volume of chloroform:methanol (3:1, v/v) was added to reaction medium containing yeast cells. Centrifugation of extracts was separated to upper water and lower organic phase. Lower organic phase were evaporated and redissolved in 200 μl acetonitrile. Quercetin glucuronides in yeast cells was isolated and detected by WAKOPAK™ Navi C30-5 (3 mm×150 mm, Wako Chemical)-column-HPLC system with followed condition; flow rate; 0.4 ml/min, detection; 370 nm, temperature 37° C. Condition of gradient elution: water-acetonitrile with 0.5% (v/v) phosphoric acid, 18% (v/v) acetonitrile (10 min), 18-55% acetonitrile (10 min), 55% acetonitrile (5 min).
(§4) To compare the production ability of glucuronide in budding (Saccharomyces cerevisiae) and fission yeast (Schizosaccharomyces pombe) containing UDPGDH and UGT, several transformants (No. 4 in Table 2 and transformant with N-terminal modified UGT1A1) were selected for the assay. These transformants were cultivated in selection medium at 30° C., 48 hrs, and the resultant yeast cells were suspended with appropriate buffer solution containing 0.5 mM 4-methylumberrferone and 8% (w/v) glucose. After incubation at 30° C., 24 hrs, 2-fold volume of chloroform:methanol (3:1, v/v) was added to reaction medium containing yeast cells. Centrifugation of extracts was separated to upper water and lower organic phase. Lower organic phase were evaporated and redissolved in 200 μl acetonitrile. Each phase was analyzed by UPLC system.
(§5) Condition of analysis are described below; column: COSMOSIL™ 2.5C18-MS-II (2.0 mm×100 mm, Nacalai Tesque), flow rate 0.5 ml/min, detection 320 nm, temperature 45° C. Condition of gradient elution: water-acetonitrile with 0.1% (v/v) trifluoroacetic acid, 10% acetonitrile (4 min), 10-70% acetonitrile (6 min), 70-10% acetonitrile (2 min), 10% acetonitrile (3 min).

[2] = biological target: T7, rat UDP-glucose dehydrogenase (Rattus norvegicus, UniProt O70199); test: Production of UDP-glucuronic acid in yeast cells transformed with rat UDP-glucose dehydrogenase gene; type: cell-based; details: estimation of sugar nucleotide, FIG. 4 line C
T7 construct: confirmed the gene product from GenBank Acc; ID NO: 9; expressed in transfected cells; host or cells: Saccharomyces cerevisiae AH22
T7 sequence (O70199 1-493): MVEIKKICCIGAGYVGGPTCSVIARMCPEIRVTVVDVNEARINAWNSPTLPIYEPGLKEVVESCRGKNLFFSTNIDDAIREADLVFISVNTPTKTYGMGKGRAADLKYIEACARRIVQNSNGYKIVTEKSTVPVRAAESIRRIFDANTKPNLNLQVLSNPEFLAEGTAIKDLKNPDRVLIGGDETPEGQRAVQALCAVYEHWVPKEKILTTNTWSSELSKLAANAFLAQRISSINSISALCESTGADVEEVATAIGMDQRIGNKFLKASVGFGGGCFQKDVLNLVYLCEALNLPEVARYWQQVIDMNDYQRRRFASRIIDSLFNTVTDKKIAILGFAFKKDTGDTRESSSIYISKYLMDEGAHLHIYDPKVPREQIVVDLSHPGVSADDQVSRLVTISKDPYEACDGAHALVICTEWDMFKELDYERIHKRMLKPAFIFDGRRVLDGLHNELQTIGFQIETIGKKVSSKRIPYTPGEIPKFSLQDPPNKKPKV
Description: Upper water phase of extracts were separated by centrifugation.

hUGT1A1 [3] = biological target: T6, hUGT1A1; details: 24 h, 0.2 mM, pH 7.4
Protocol: as §2, §3, §4, §5

SMILES: COc1c(C)c2c(c(O[C@@H]3O[C@H](C(=O)O)[C@@H](O)[C@H](O)[C@H]3O)c1C/C=C(\C)CCC(=O)O)C(=O)OC2 [mycophenolic acid glucuronide]
production of glucuronide (FIG. 10) (hUGT1A9; 0.2 mM mycophenolic acid, 8% glucose, 30° C., 24 hrs): confirmed

acyl glucuronide formation (FIG. 11) (UGT1A10): significant activity | acyl glucuronide formation (FIG. 11) (hUGT1A8; 1 mM mefenamic acid, UGT1A8): significant activity
SMILES: Cc1cccc(Nc2ccccc2C(=O)O[C@@H]2O[C@H](C(=O)O)[C@@H](O)[C@H](O)[C@H]2O)c1C [mefenamic acid acyl glucuronide]

production of glucuronide (FIG. 5) (UGT1A6; UGT1A6 with At.UDPGDH, 7-hydroxycoumarine substrate, 30° C., 24 hrs): observed | productivity of glucuronide (UGT1A6; optimal conditions, cells expressing UDPGDH and UGT1A6): 200 mg per liter of reaction solution | production of glucuronide (FIG. 5) (hUGT1A9): observed | production of glucuronide (FIG. 5) (hUGT1A8; UGT1A8 with At.UDPGDH, 7-hydroxycoumarine substrate, 30° C., 24 hrs): observed | production of glucuronide (FIG. 5) (hUGT1A7): observed | production of glucuronide (FIG. 5) (hUGT1A1 [1]): observed
SMILES: O=C(O)[C@H]1O[C@@H](Oc2ccc3ccc(=O)oc3c2)[C@H](O)[C@@H](O)[C@@H]1O [glucuronide of 7-hydroxycoumarine, 7-hydroxycoumarine glucuronide]

SMILES: O=C(O)[C@H]1O[C@H](OP(=O)(O)OP(=O)(O)OC[C@H]2O[C@@H](n3ccc(=O)[nH]c3=O)[C@H](O)[C@@H]2O)[C@H](O)[C@@H](O)[C@@H]1O [UDP-glucuronic acid]
concentration of endogenous UDP-glucuronic acid in yeast cells [2]: 4 to 5 mM

SMILES: O=c1c(O)c(-c2ccc(O)c(O)c2)oc2cc(O)cc(O)c12 [Quercetin, quercetin]
site of glucuronidation (FIG. 9) (hUGT1A1 [3]): preferential production of querecetin glucuronide at 3′ phenolic hydroxyl group in B ring

SMILES: COc1c(C)c2c(c(O[C@@H]3O[C@H](C(=O)O)[C@@H](O)[C@H](O)[C@H]3O)c1C/C=C(\C)CCC(=O)O)C(=O)OC2 [mycophenolic-O-glucuronide]
site of glucuronidation (FIG. 10) (hUGT1A9; 0.2 mM mycophenolic acid, UGT1A9): preferential production

conversion to glucuronide, time course (FIG. 6) (UGT1A6; 0.5 mM 7OHC, after 24 hrs): complete conversion | conversion to glucuronide, glucose dependence (FIG. 7) (UGT1A6; at 8% (w/v) glucose): complete conversion
SMILES: O=c1ccc2ccc(O)cc2o1 [7OHC, 7-hydroxycoumarine, reference compound]
